Source: patent publication US11286268B1, “EIF4E-inhibiting compounds and methods” (EFFECTOR THERAPEUTICS, INC., priority 2019, dated 2022)
Read-outs that look alike come from different tables or passages of the source.

Target: recombinant eIF4E (Homo sapiens (Human), UniProt P06730)
Assay: Fluorescence polarization competition assay for eIF4E binding potency
Procedure, shortened: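 FP readout; IC50 fit from 8-point, 3-fold series. 75 nM eIF4E + 20 nM ATTO-550-labelled m7GDP probe, Tris pH 7.5/NaCl/DTT/Tween buffer, 1% DMSO final. 30 min RT equilibration, light-protected.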

[1] = fluorescence polarization competition, 75 nM recombinant eIF4E, 20 nM EDA-m7GDP-ATTO-550, IC50 class, read-out: elF4E FP
[2] = inhibition of eIF4E/EDA-m7GDP-ATTO-550 binding by 50%, Table 4B calculated values, read-out: IC50
[3] = inhibition of eIF4E/EDA-m7GDP-ATTO-550 binding, calculated IC50 values, Table 4B, read-out: IC50

Chain of recombinant eIF4E (P06730 whole entry): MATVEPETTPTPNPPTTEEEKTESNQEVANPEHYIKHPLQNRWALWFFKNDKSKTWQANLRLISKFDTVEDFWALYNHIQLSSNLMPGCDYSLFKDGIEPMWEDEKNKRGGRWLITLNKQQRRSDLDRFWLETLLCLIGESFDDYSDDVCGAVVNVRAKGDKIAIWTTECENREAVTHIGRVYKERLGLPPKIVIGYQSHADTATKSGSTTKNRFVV

SMILES | IC50 [1] | IC50 [2] | IC50 [3]
Cc1nc2cc(C(F)(F)F)cc(C#N)c2c(=O)n1CCOc1[nH]c(=O)c(Cl)cc1-c1ccnc2c(C(=O)O)csc12 [compound 356] | > 1000 nM | 1220 nM | 
CCN(c1ncc2nc(C)n(CC#Cc3ccc(Cl)cc3-c3ccnc4c(C(=O)NS(=O)(=O)C5COC5)csc34)c(=O)c2c1C#N)C1CCN(C2COC2)CC1 [compound 1750] |  |  | 16.1 nM
Cc1nc2cc(C(F)(F)F)c(CCN(C)C)c(C#N)c2c(=O)n1CC#Cc1ccc(Cl)cc1-c1ccnc2c(C(=O)O)csc12 [compound 1298] |  |  | 38.3 nM
Cc1nc2cnc(C3CCN(CC(F)(F)F)CC3)c(C#N)c2c(=O)n1CC#Cc1ccc(Cl)cc1-c1ccnc2c(C(=O)O)csc12 [compound 1116] | < 50 nM | 17.1 nM | 
Cc1cc(-c2cc(Cl)ccc2OCCn2c(C)nc3c(C)ncc(C#N)c3c2=O)c2scc(C(O)(O)C(F)(F)F)c2n1 [compound 732] | 50 to 1000 nM | 874 nM | 
CCOc1ncc2nc(C)n(CCOc3ccc(Cl)cc3-c3cc(C)nc4c(C(=O)O)csc34)c(=O)c2c1C#N [compound 1067] | < 50 nM | 10.5 nM | 
CCc1cc(-c2cc(Cl)ccc2OCCn2c(C)nc3cnc([C@@H]4[C@@H]5CN(C)C[C@@H]54)c(C#N)c3c2=O)c2scc(C(=O)O)c2n1 [compound 1216] | < 50 nM |  | 10.3 nM
Cc1nc2cnc(N3CCN(C4(C)CC(F)(F)C4)CC3)c(C#N)c2c(=O)n1CCOc1ccc(Cl)cc1-c1ccnc2c(C(=O)O)csc12 [compound 1641] |  |  | 18.9 nM
Cc1nc2cnc(N3CCN(C)C(C(F)F)C3)c(C#N)c2c(=O)n1CCOc1ccc(Cl)cc1-c1ccnc2c(C(=O)O)csc12 (stereo not drawn) [compound 1305] |  |  | 26.5 nM
Cc1cc(-c2cc(Cl)ccc2OCCn2c(C)nc3cc(OC(F)F)cc(C#N)c3c2=O)c2scc(C(=O)NS(C)(=O)=O)c2n1 [compound 580] | < 50 nM | 24.2 nM | 
Cc1cc(-c2cc(Cl)ccc2C#CCn2c(C)nc3cncc(C#N)c3c2=O)c2scc(C(=O)O)c2n1 [compound 601] | 50 to 1000 nM | 52 nM | 
Cc1nc2cc(C(F)(F)F)c(CCN(C)C)c(C#N)c2c(=O)n1CCOc1ccc(Cl)cc1-c1ccnc2ccsc12 [compound 1255] |  |  | 150 nM
CCc1cc(-c2cc(Cl)ccc2OCCn2c(N)nc3cc(Cl)cc(C#N)c3c2=O)c2scc(C(=O)O)c2n1 [compound 1077] | 50 to 1000 nM | 245 nM | 
O=C(O)c1cccc(-c2cc(Cl)ccc2OCCc2cccc3nc[nH]c(=O)c23)c1 [compound 170] | 50 to 1000 nM | 845 nM | 
Cc1nc2cc(C(N)=O)cc(C#N)c2c(=O)n1CCOc1ccc(Cl)cc1-c1ccnc2c(C(=O)O)csc12 [compound 317] | < 50 nM | 17.1 nM | 
Cc1cc(-c2cc(Cl)ccc2C#CCn2c(C)nc3cc(C(F)(F)F)c(N4CCN(CCO)CC4)c(C#N)c3c2=O)c2scc(C(=O)O)c2n1 [compound 856] | < 50 nM | 13.7 nM | 
Cc1sc2c(-c3cc(Cl)ccc3C#CCn3c(C)nc4cc(C(F)(F)F)c(N5CCN(C)CC5)c(C#N)c4c3=O)ccnc2c1C(=O)O [compound 1271] |  |  | 13.1 nM
Cc1nc2cnc(N3CCN(C(C)(C)CCC(F)(F)F)CC3)c(C#N)c2c(=O)n1CCOc1ccc(Cl)cc1-c1ccnc2c(C(=O)O)csc12 [compound 1400] |  |  | 27.8 nM
COc1c(CN(C)C)cc2nc(C)n(CCOc3ccc(Cl)cc3-c3cc(C)nc4c(C(=O)O)csc34)c(=O)c2c1C#N [compound 369] | < 50 nM | 1.32 nM | 
Cc1cc(-c2ncc3nc(C)n(CCOc4ccc(Cl)cc4-c4cc(C)nc5c(C(=O)O)csc45)c(=O)c3c2C#N)cc(C)n1 [compound 873] | < 50 nM | 15.7 nM | 
N#Cc1c(C(F)F)ccc2nc(C(F)F)n(CCOc3ccc(Cl)cc3-c3ccnc4c(C(=O)O)csc34)c(=O)c12 [compound 188] | 50 to 1000 nM | 63.2 nM | 
Cc1nc2cnc(N(C)C3CCN(C4CC(F)(F)C4)CC3)c(C#N)c2c(=O)n1CC#Cc1ccc(Cl)cc1-c1ccnc2c(C(=O)NS(=O)(=O)C3COC3)csc12 [compound 1811] |  |  | 12.7 nM
Cc1nc2cnc(N(C)C3CCN(C4(CF)CC4)CC3)c(C#N)c2c(=O)n1CC#Cc1ccc(Cl)cc1-c1ccnc2c(C(=O)O)csc12 [compound 1529] |  |  | 20.1 nM
Cc1c(CCOc2ccc(Cl)cc2-c2ccnc3c(C(=O)O)csc23)c(=O)c2c(C#N)cc(C(F)(F)F)cc2n1C [compound 180] | < 50 nM | 47.7 nM | 
Cc1nc2cc(C(F)(F)F)cc(Br)c2c(=O)n1CCOc1ccc(Cl)cc1-c1cccc(C(=O)O)c1 [compound 304] | > 1000 nM | 1600 nM | 
Cc1nc2cnc(N(C)C3CCN([C@H]4C[C@@H](OC(F)F)C4)CC3)c(C#N)c2c(=O)n1CC#Cc1ccc(Cl)cc1-c1ccnc2c(C(=O)O)csc12 [compound 1172] | < 50 nM | 14.2 nM | 

SMILES | IC50 [1] | IC50 [2] | IC50 [3]
Cc1nc2ccc(S(=O)(=O)N3CCCCC3)c(C#N)c2c(=O)n1CCOc1ccc(Cl)cc1-c1ccnc2c(C(=O)O)csc12 [compound 251] | < 50 nM |  | 
Cc1nc2cnc(N3CCN(CC(F)(F)F)CC3)c(C#N)c2c(=O)n1CC#Cc1ccc(Cl)cc1-c1ccnc2c(C(=O)NS(C)(=O)=O)csc12 [compound 1362] |  |  | 14.1 nM
Cc1nc2cnc(N(C)C3CCN(C)CC3)c(C#N)c2c(=O)n1CCOc1ccc(Cl)cc1-c1ccnc2c(C(=O)O)csc12 [compound 854] | < 50 nM | 11.9 nM | 
Cc1cc(-c2cc(Cl)ccc2OCCn2c(C)nc3cc(C(F)(F)F)c(CC4CCN(C)CC4)c(C#N)c3c2=O)c2scc(C(=O)O)c2n1 [compound 713] | < 50 nM | 31.4 nM | 
Cc1cc(-c2cc(Cl)ccc2OCCn2c(C)nc3cnc(C(C)(C)C)c(C#N)c3c2=O)c2scc(C(=O)O)c2n1 [compound 420] | < 50 nM | 9.6 nM | 
Cc1cc(-c2cc(Cl)ccc2OCCn2c(C)nc3cc(OC(F)F)c(CCN(C)C)c(C#N)c3c2=O)c2scc(C(=O)O)c2n1 [compound 592] | < 50 nM | 10.3 nM | 
Cc1cc(-c2c(Cl)cc3nc(C)n(CCOc4ccc(Cl)cc4-c4cc(C)nc5c(C(=O)O)csc45)c(=O)c3c2C#N)cc(C)n1 [compound 396] | < 50 nM | 18.1 nM | 
CCc1cc(-c2cc(F)c(F)cc2OCCn2c(C)nc3cc(C(F)(F)F)c(N4CCN(C)CC4)c(C#N)c3c2=O)c2scc(C(=O)O)c2n1 [compound 1215] | < 50 nM |  | 25.7 nM
Cc1nc2cnc(OC3CCN(CCF)CC3)c(C#N)c2c(=O)n1CCOc1ccc(Cl)cc1-c1ccnc2c(C(=O)O)csc12 [compound 1479] |  |  | 16.7 nM
Cc1nc2cnc(N3CCN(CC4(F)CC4)CC3)c(C#N)c2c(=O)n1CCOc1ccc(Cl)cc1-c1ccnc2c(C(=O)O)csc12 [compound 1470] |  |  | 30.8 nM
CCc1cc(-c2cc(Cl)ccc2OCCn2c(C)nc3cc(C(F)(F)F)c(N4CCN(C)CC4)c(C#N)c3c2=O)cc(C(=O)O)n1 [compound 1223] | < 50 nM |  | 2.79 nM
Cc1nc2cnc(N(C)[C@H]3[C@@H]4CC[C@H]3CN(CC(C)(F)F)C4)c(C#N)c2c(=O)n1CC#Cc1ccc(Cl)cc1-c1ccnc2c(C(=O)O)csc12 [compound 1690] |  |  | 27.4 nM
N#Cc1cc2c(=O)n(CCOc3ccc(Cl)cc3-c3cccc(C(=O)O)c3)cnc2cn1 [compound 66] | 50 to 1000 nM | 187 nM | 
Cc1nc2cc(C(F)(F)F)c(N3CCN(C)CC3=O)c(C#N)c2c(=O)n1CC#Cc1ccc(Cl)cc1-c1ccnc2c(C(=O)O)csc12 [compound 1270] |  |  | 39.9 nM
Cc1nc2cnc(C3=CCN(CCF)CC3)c(C#N)c2c(=O)n1CC#Cc1ccc(Cl)cc1-c1ccnc2c(C(=O)O)csc12 [compound 1462] |  |  | 20.1 nM
N#Cc1cc2c(=O)n(CCOc3ccc(Cl)cc3-c3cc(C(=O)O)c4cc[nH]c4n3)cnc2cn1 [compound 117] | > 1000 nM | > 3000 nM | 
Cc1ccc(-c2cc(Cl)ccc2OCCn2c(C)nc3cnc(C4CC4)c(C#N)c3c2=O)c2scc(C(=O)O)c12 [compound 794] | < 50 nM | 3.41 nM | 
Cc1cc(-c2cc(Cl)ccc2OCCn2c(C)nc3cc(C(F)(F)F)cc(C#N)c3c2=O)c2csc(C(=O)O)c2n1 [compound 447] | 50 to 1000 nM | 84.8 nM | 
COC1CN(c2c(Cl)cc3nc(C)n(CCOc4ccc(Cl)cc4-c4cc(C)nc5c(C(=O)O)csc45)c(=O)c3c2C#N)C1 [compound 701] | < 50 nM | 19.2 nM | 
Cc1cc(-c2cc(Cl)ccc2OCCn2c(C)nc3cc(C(F)(F)F)c(N4CCS(=O)(=O)CC4)c(C#N)c3c2=O)c2scc(C(=O)O)c2n1 [compound 867] | < 50 nM | 6.61 nM | 
CCc1cc(-c2cc(Cl)ccc2OCCn2c(C)nc3cc(C(F)(F)F)c(CC4CCN(C)CC4)c(C#N)c3c2=O)c2scc(C(=O)O)c2n1 [compound 1275] |  |  | 58.7 nM
Cc1cc(-c2cc(Cl)ccc2OCCc2nc3cc(N4CCN(C)CC4)c(C(F)(F)F)cc3nc2C)c2scc(C(=O)O)c2n1 [compound 1211] | 50 to 1000 nM |  | > 1000 nM
Cc1nc2cnc(C3=CCC(F)(F)CC3)c(C#N)c2c(=O)n1CCOc1ccc(Cl)cc1-c1ccnc2c(C(=O)O)csc12 [compound 882] | < 50 nM | 6.62 nM | 
C#Cc1c(C(=O)O)cccc1-c1cc(Cl)ccc1OCCn1c(C)nc2ccc(C(F)F)c(C#N)c2c1=O [compound 55] | < 50 nM | 21.6 nM | 
Cc1nc2cc(Cl)c(OC(F)F)c(C#N)c2c(=O)n1CCOc1ccc(Cl)cc1-c1ccnc2c(C(=O)O)csc12 [compound 546] | < 50 nM | 43.6 nM | 
Cc1cc(-c2cc(Cl)ccc2OCCn2c(C)nc3cc(C(F)(F)F)c(-c4ncccc4F)c(C#N)c3c2=O)c2scc(C(=O)O)c2n1 [compound 751] | 50 to 1000 nM | 69.8 nM | 
